# Measurements from patent publication US11078222B2, “Hydroxybenzoic acid derivatives, methods and uses thereof” (UNiVERSIDADE DO PORTO, priority 2016, dated 2021).
# Assays:
# [1] = ABTS radical cation scavenging activity; type: biochemical; settings: ethanol, 15 min
# Procedure: The radical scavenging activity of AntiOxClNs was evaluated by means of total antioxidant capacity assays based on DPPH., ABTS.^+ and GO. radicals. All these methods involved the spectrophotometric measurement of the absorbance decrease resulting from radical (DPPH., ABTS.^+ or GO.) deactivation with an antioxidant. The results were expressed in IC50, which is defined as the minimum antioxidant concentration necessary to reduce the amount of radical by 50%. Antioxidant assays were performed in a multiplate reader (Powerwave XS Microplate Reader) from Bio Tech instruments.
# In an embodiment, the ABTS.^+ scavenging activity was evaluated as follows: ethanolic solutions of the test compounds with increasing concentrations (range between 10 μM and 500 μM) were prepared. ABTS. radical cation solution was obtained by addition of 150 mM aqueous potassium persulfate solution (163 μL) to 10 mL of 7 mM aqueous ABTS solution followed by storage in the dark at room temperature for 16 h (2.45 mM final concentration). The solution was then diluted in ethanol to reach the absorbance of 0.72±0.02. After addition of the compound (20 μL), in triplicate, to ABTS.^+ solution (180 μL) the spectrophotometric measurement was carried out each minute over 15 minutes. […] Dose-response curves were established for the determination of IC50 values.
# [2] = system: rat liver mitochondria (RLM); assay: Mitochondrial uptake by energised RLM, TPP-selective electrode; type: in vitro ADME
# Procedure: In an embodiment, and as an example, the mitochondrial uptake of some AntiOxBENs was assessed in isolated rat liver mitochondria (RLM) in response to the membrane potential. AntiOxBENs can accumulate inside mitochondria driven by the Δψ (FIG. 3A). Different AntiOxBENs accumulation outlines within the mitochondrial matrix have been measured. […] The following ranking order was attained: AntiOxBEN2<AntiOxBEN1<AntiOxBEN3.
# In an embodiment, the AntiOxBENs mitochondria uptake by energized RLM was evaluated as follows: RLM (0.5 mg protein/mL) were incubated with AntiOxBENs at 37° C. under constant stirring in 1 mL of KCl medium (120 mM KCl, 10 mM HEPES, pH 7.2 and 1 mM EGTA). Five sequential 1 μM additions of each AntiOxBENs were performed to calibrate the electrode response in the presence of rotenone (1.5 μM). Then, succinate (10 mM) was added to generate […]. Valinomicin (0.2 μg/mL) was added at the end of the assay to dissipate Δψ. The measurements were performed with an ion-selective electrode, which measure the distribution of tetraphenylphosphonium cation (TPP+) and Ag/AgCl2 electrode as reference. The mitochondrial accumulation ratio was calculated by the disappearance of AntiOxBENs from extra- to intramitochondrial medium assuming an intramitochondrial volume of 0.5 μL/mg protein and a binding correction for the mitochondrial uptake of TPP compounds.
# [3] = system: rat liver mitochondria (RLM); assay: Mitochondrial respiration of isolated RLM (Clark-type oxygen electrode): RCR, ADP/O; type: biochemical; settings: RLM
# Procedure: (§1) In an embodiment, and as an example, the toxicity effects of some AntiOxBENs and MitoQ on the mitochondrial bioenergetics, namely on RLM Δψ and respiration parameters, were measured. The Δψ represents the main component of the electrochemical gradient generated by mitochondrial respiration and accounts for more than 90% of the total available energy. For mitochondrial respiration assays, glutamate/malate (for complex I) and succinate (for complex II) were used as substrates. In addition, the mitochondrial oxidative phosphorylation coupling index, known as respiratory control ratio (RCR, state 3/state 4 respiration) and ADP/O index (the coupling between ATP synthesis and oxygen consumption) were also calculated. AntiOxBENs and MitoQ were tested at antioxidant-relevant concentrations, with 10 μM being the highest concentration.
# In an embodiment, the evaluation of AntiOxBENs effect on mitochondrial respiration was performed as follows: the respiration of isolated RLM was evaluated polarographically with a Clark-type oxygen electrode, connected to a suitable recorder in a 1 mL thermostated water-jacketed chamber with magnetic stirring, at 37° C. […] Increasing concentrations of AntiOxBENs (2.5-10 μM) were added to the reaction medium containing respiratory substrates glutamate/malate (10 mM and 5 mM respectively) or succinate (5 mM) and RLM (1 mg) and allowed to incubate for a 5 min period prior to the assay. State 2 was considered as the respiration during the 5 min incubation time with AntiOxBENs. […] State 4 was determined after ADP phosphorylation finished. Subsequent addition of oligomycin (2 μg/ml) inhibited ATPsynthase and originated the oligomycin-inhibition respiration state. Finally, 1 μM FCCP was added to induce uncoupled respiration. […] Data are means are means±SEM of seven independent experiments.
# [4] = system: rat liver mitochondria (RLM); assay: Mitochondrial transmembrane electric potential (safranine fluorescence); type: biochemical
# Procedure: as §1
# In an embodiment, the evaluation of AntiOxBENs effect on mitochondrial transmembrane electric potential (Δψ) was performed as follows: the mitochondrial transmembrane electric potential (Δψ) was estimated through the evaluation of fluorescence changes of safranine (5 μM) and was recorded on a spectrofluorometer operating at excitation and emission wavelengths of 495 and 586 nm, with a slit width of 5 nm. Increasing concentrations of AntiOxBENs (2.5-10 μM) were added to the reaction medium (200 mM sucrose, 1 mM KH2PO^4, 10 mM Tris (pH 7.4) and 10 μM EGTA) containing respiratory substrates glutamate/malate (5 mM and 2.5 mM respectively) or succinate (5 mM) and RLM (0.5 mg in 2 mL final volume) and allowed to incubate for a 5 min period prior to initiate the assay, at 25° C. In this assay, safranine (5 μM) and ADP (25 nmol) were used to initiate the assay and to induce depolarization, respectively. Then, 1 μM FCCP was added at the end of all experiments to depolarize mitochondria. Δψ was calculated using a calibration curve obtained when RLM were incubated in a K^+-free reaction medium containing 200 mM sucrose, 1 mM NaH2PO4, 10 mM Tris (pH 7.4) and 10 μM EGTA, supplemented with 0.4 μg valinomicin. […] “Repolarization” corresponded to the recovery of membrane potential after the complete phosphorylation of ADP added. Lag phase reflected the time required to phosphorylate the added ADP. Isolated RLM developed a Δψ≈226 mV and Δψ≈202 mV (negative inside) when glutamate/malate or succinate were used, respectively. Data are means±SEM of five independent experiments.
# [5] = system: rat liver mitochondria (RLM) membranes; assay: RLM lipid peroxidation, TBARS assay (FeSO4/H2O2/ascorbate); settings: 5 μM, FeSO4/H2O2/ascorbate
Structure (SMILES),IC50 [1] [µM],"ADP/O ([3]; Glutamate/Malate, 2.5 μM)","RCR ([3]; Glutamate/Malate, 2.5 μM)","ADP/O ([3]; Glutamate/Malate, 5 μM)","RCR ([3]; Glutamate/Malate, 5 μM)","ADP/O ([3]; Glutamate/Malate, 10 μM)","RCR ([3]; Glutamate/Malate, 10 μM)","ADP/O ([3]; Succinate, 2.5 μM)","RCR ([3]; Succinate, 2.5 μM)","ADP/O ([3]; Succinate, 5 μM)","RCR ([3]; Succinate, 5 μM)","ADP/O ([3]; Succinate, 10 μM)","RCR ([3]; Succinate, 10 μM)","ADP-induced depolarization (ΔΨ in - mV) ([4]; Glutamate/Malate, 2.5 μM)","Lag Phase ([4]; Glutamate/Malate, 2.5 μM) [s]","Maximum potential (ΔΨ in - mV) ([4]; Glutamate/Malate, 2.5 μM)","Repolarization Potential (ΔΨ in - mV) ([4]; Glutamate/Malate, 2.5 μM)","ADP-induced depolarization (ΔΨ in - mV) ([4]; Glutamate/Malate, 5 μM)","Lag Phase ([4]; Glutamate/Malate, 5 μM) [s]","Maximum potential (ΔΨ in - mV) ([4]; Glutamate/Malate, 5 μM)",also measured
"O=C(NCCCCCC[P+](c1ccccc1)(c1ccccc1)c1ccccc1)c1ccc(O)c(O)c1.[Br-] [AntiOxBEN1, 6-(3,4-dihydroxybenzamido)hexyltriphenylphosphonium bromide]",29.9,2.5 ± 0.2,4.9 ± 0.6,2.8 ± 0.4,4.4 ± 0.6,2.1 ± 0.1,2.6 ± 0.1,1.7 ± 0.03,4.7 ± 0.3,1.6 ± 0.1,3.0 ± 0.3,1.5 ± 0.1,2.8 ± 0.3,199.5 ± 16.6 - mV,131.8 ± 18.9,216.8 ± 18.9 - mV,212.3 ± 18.2 - mV,209.4 ± 20.3 - mV,137.8 ± 22.5,224.8 ± 24.7 - mV,"accumulation ratio by rat liver mitochondria ([2]; energised RLM, succinate): AntiOxBEN2<AntiOxBEN1<AntiOxBEN3; Repolarization Potential (ΔΨ in - mV) ([4]; Glutamate/Malate, 5 μM): 219.0 ± 22.9 - mV; ADP-induced depolarization (ΔΨ in - mV) ([4]; Glutamate/Malate, 10 μM): 192.6 ± 15.0 - mV; Lag Phase ([4]; Glutamate/Malate, 10 μM): 148.7 ± 48.4 s; Maximum potential (ΔΨ in - mV) ([4]; Glutamate/Malate, 10 μM): 200.4 ± 16.0 - mV; Repolarization Potential (ΔΨ in - mV) ([4]; Glutamate/Malate, 10 μM): 199.4 ± 17.1 - mV; ADP-induced depolarization (ΔΨ in - mV) ([4]; Succinate, 2.5 μM): 180.3 ± 17.1 - mV; Lag Phase ([4]; Succinate, 2.5 μM): 120.0 ± 32.1 s; Maximum potential (ΔΨ in - mV) ([4]; Succinate, 2.5 μM): 191.4 ± 18.2 - mV; Repolarization Potential (ΔΨ in - mV) ([4]; Succinate, 2.5 μM): 190.3 ± 17.4 - mV; ADP-induced depolarization (ΔΨ in - mV) ([4]; Succinate, 5 μM): 175.4 ± 12.9 - mV; Lag Phase ([4]; Succinate, 5 μM): 93.6 ± 29.2 s; Maximum potential (ΔΨ in - mV) ([4]; Succinate, 5 μM): 184.9 ± 13.1 - mV; Repolarization Potential (ΔΨ in - mV) ([4]; Succinate, 5 μM): 181.0 ± 13.5 - mV; ADP-induced depolarization (ΔΨ in - mV) ([4]; Succinate, 10 μM): 182.4 ± 14.4 - mV; Lag Phase ([4]; Succinate, 10 μM): 105.0 ± 28.1 s; Maximum potential (ΔΨ in - mV) ([4]; Succinate, 10 μM): 188.9 ± 14.8 - mV; Repolarization Potential (ΔΨ in - mV) ([4]; Succinate, 10 μM): 188.8 ± 15.8 - mV; prevention of TBARS formation / mitochondria lipid peroxidation [5]: not effective"
"O=C(NCCCCCC[P+](c1ccccc1)(c1ccccc1)c1ccccc1)c1cc(O)c(O)c(O)c1.[Br-] [AntiOxBEN2, 6-(3,4,5-trihydroxybenzamido)hexyltriphenylphosphonium bromide]",10.3,2.3 ± 0.3,4.3 ± 0.6,2.3 ± 0.2,3.9 ± 0.5,2.1 ± 0.2,2.9 ± 0.3,1.7 ± 0.1,5.2 ± 0.9,1.7 ± 0.1,3.8 ± 0.4,1.6 ± 0.04,3.5 ± 0.3,200.5 ± 17.5 - mV,124.7 ± 19.2,217.8 ± 18.8 - mV,216.8 ± 17.9 - mV,194.9 ± 15.6 - mV,147.5 ± 31.2,212.2 ± 19.8 - mV,"accumulation ratio by rat liver mitochondria ([2]; energised RLM, succinate): AntiOxBEN2<AntiOxBEN1<AntiOxBEN3; Repolarization Potential (ΔΨ in - mV) ([4]; Glutamate/Malate, 5 μM): 209.0 ± 17.8 - mV; ADP-induced depolarization (ΔΨ in - mV) ([4]; Glutamate/Malate, 10 μM): 200.1 ± 18.2 - mV; Lag Phase ([4]; Glutamate/Malate, 10 μM): 146.2 ± 30.9 s; Maximum potential (ΔΨ in - mV) ([4]; Glutamate/Malate, 10 μM): 209.5 ± 19.1 - mV; Repolarization Potential (ΔΨ in - mV) ([4]; Glutamate/Malate, 10 μM): 208.4 ± 18.6 - mV; ADP-induced depolarization (ΔΨ in - mV) ([4]; Succinate, 2.5 μM): 184.5 ± 19.2 - mV; Lag Phase ([4]; Succinate, 2.5 μM): 115.4 ± 21.0 s; Maximum potential (ΔΨ in - mV) ([4]; Succinate, 2.5 μM): 197.6 ± 18.2 - mV; Repolarization Potential (ΔΨ in - mV) ([4]; Succinate, 2.5 μM): 193.6 ± 17.8 - mV; ADP-induced depolarization (ΔΨ in - mV) ([4]; Succinate, 5 μM): 191.2 ± 17.8 - mV; Lag Phase ([4]; Succinate, 5 μM): 118.0 ± 26.4 s; Maximum potential (ΔΨ in - mV) ([4]; Succinate, 5 μM): 204.6 ± 18.1 - mV; Repolarization Potential (ΔΨ in - mV) ([4]; Succinate, 5 μM): 200.4 ± 17.0 - mV; ADP-induced depolarization (ΔΨ in - mV) ([4]; Succinate, 10 μM): 190.9 ± 16.8 - mV; Lag Phase ([4]; Succinate, 10 μM): 124.8 ± 37.2 s; Maximum potential (ΔΨ in - mV) ([4]; Succinate, 10 μM): 199.8 ± 16.0 - mV; Repolarization Potential (ΔΨ in - mV) ([4]; Succinate, 10 μM): 198.6 ± 17.2 - mV; prevention of TBARS formation / mitochondria lipid peroxidation [5]: most effective"
"O=C(CCCCC[P+](c1ccccc1)(c1ccccc1)c1ccccc1)NCCCCCCNC(=O)c1cc(O)c(O)c(O)c1.[Br-] [AntiOxBEN3, [5-(6-(3,4,5-trihydroxybenzamido)hexylamino)carbonylpentyl]triphenylphosphonium bromide]",9.6,2.3 ± 0.2,3.9 ± 0.5,2.3 ± 0.1,3.9 ± 0.6,2.0 ± 0.2,3.07 ± 0.6,1.6 ± 0.1,4.1 ± 0.5,1.6 ± 0.1,4.3 ± 0.7,1.7 ± 0.1,3.9 ± 0.4,202.9 ± 18.7 - mV,137.5 ± 20.3,221.1 ± 20.2 - mV,217.0 ± 17.7 - mV,204.5 ± 21.6 - mV,154.5 ± 21.5,221.4 ± 22.6 - mV,"accumulation ratio by rat liver mitochondria ([2]; rat, 5 μM, pH 7.2): AntiOxBEN2<AntiOxBEN1<AntiOxBEN3; Repolarization Potential (ΔΨ in - mV) ([4]; Glutamate/Malate, 5 μM): 216.4 ± 21.3 - mV; ADP-induced depolarization (ΔΨ in - mV) ([4]; Glutamate/Malate, 10 μM): 216.4 ± 25.3 - mV; Lag Phase ([4]; Glutamate/Malate, 10 μM): 143.0 ± 21.7 s; Maximum potential (ΔΨ in - mV) ([4]; Glutamate/Malate, 10 μM): 227.5 ± 26.3 - mV; Repolarization Potential (ΔΨ in - mV) ([4]; Glutamate/Malate, 10 μM): 222.9 ± 25.4 - mV; ADP-induced depolarization (ΔΨ in - mV) ([4]; Succinate, 2.5 μM): 188.0 ± 19.7 - mV; Lag Phase ([4]; Succinate, 2.5 μM): 132.6 ± 22.7 s; Maximum potential (ΔΨ in - mV) ([4]; Succinate, 2.5 μM): 203.6 ± 16.6 - mV; Repolarization Potential (ΔΨ in - mV) ([4]; Succinate, 2.5 μM): 198.4 ± 18.4 - mV; ADP-induced depolarization (ΔΨ in - mV) ([4]; Succinate, 5 μM): 191.1 ± 20.0 - mV; Lag Phase ([4]; Succinate, 5 μM): 119.8 ± 32.2 s; Maximum potential (ΔΨ in - mV) ([4]; Succinate, 5 μM): 205.3 ± 19.4 - mV; Repolarization Potential (ΔΨ in - mV) ([4]; Succinate, 5 μM): 199.1 ± 19.2 - mV; ADP-induced depolarization (ΔΨ in - mV) ([4]; Succinate, 10 μM): 198.2 ± 19.3 - mV; Lag Phase ([4]; Succinate, 10 μM): 114.4 ± 24.3 s; Maximum potential (ΔΨ in - mV) ([4]; Succinate, 10 μM): 207.9 ± 19.3 - mV; Repolarization Potential (ΔΨ in - mV) ([4]; Succinate, 10 μM): 207.5 ± 19.4 - mV; prevention of TBARS formation / mitochondria lipid peroxidation [5]: most effective"
